Measured values reported in patent US10582709B2, “Butyrolactones as herbicides” (FMC Corporation, priority 2015, dated 2020).

The molecules below were run on wheat (Triticum aestivum) (assay: Test A postemergence, wheat). Conditions: 125 g ai/ha, visual rating after approx. 10 d, 0 to 100 scale, 0 no effect, 100 complete control.
Type: in vivo
Excerpt: (§1) Seeds of plant species selected from barnyardgrass (Echinochloa crus-galli), crabgrass (large crabgrass, Digitaria sanguinalis), kochia (Kochia scoparia), ragweed (common ragweed, Ambrosia elatior), morningglory (Ipomoea spp.), velvetleaf (Abutilon theophrasti), ryegrass, Italian (Italian ryegrass, Lolium multiflorum), foxtail, giant (giant foxtail, Setaria faberii), wheat (Triticum aestivum), corn (Zea mays), and pigweed (Amaranthus retroflexus), were planted into a blend of loam soil and sand and treated preemergence with a directed soil spray using test chemicals formulated in a non-phytotoxic solvent mixture which included a surfactant. At the same time, plants selected from these crop and weed species and also blackgrass (Alopecurus myosuroides), and galium (catchweed bedstraw, Galium aparine), were planted in pots containing the same blend of loam soil and sand and treated with postemergence applications of test chemicals formulated in the same manner. Plants ranged in height from 2 to 10 cm and were in the one- to two-leaf stage for the postemergence treatment. Treated plants and untreated controls were maintained in a greenhouse for approximately 10 d, after which time all treated plants were compared to untreated controls and visually evaluated for injury. Plant response ratings, summarized in Table A, are based on a 0 to 100 scale where 0 is no effect and 100 is complete control. A dash (-) response means no test result.
`O=C(Nc1cccc(F)c1C(F)(F)F)C1C(=O)OCC1c1ccc(F)c(C(F)(F)F)c1` (racemic) [Compound 18] was tested, and the “Plant response rating, Wheat” value was 0.

Same assay, conditions: 500 g ai/ha, visual rating after approx. 10 d, 0 to 100 scale, 0 no effect, 100 complete control
`O=C(Nc1cccc(F)c1C(F)(F)F)C1C(=O)OCC1c1ccc(F)c(C(F)(F)F)c1` (racemic) [Compound 18] was tested, and the “Plant response rating, Wheat” value was 0.

What follows are molecules tested on foxtail, giant (giant foxtail, Setaria faberii) (assay: Test A postemergence, giant foxtail). Conditions: 125 g ai/ha, visual rating after approx. 10 d, 0 to 100 scale, 0 no effect, 100 complete control.
Type: in vivo
Excerpt: as §1
With `O=C(Nc1cccc(F)c1C(F)(F)F)C1C(=O)OCC1c1ccc(F)c(C(F)(F)F)c1` (racemic) [Compound 18] the “Plant response rating, Foxtail, Giant” value was 0.

Same assay, conditions: 500 g ai/ha, visual rating after approx. 10 d, 0 to 100 scale, 0 no effect, 100 complete control
For `O=C(Nc1cccc(F)c1C(F)(F)F)C1C(=O)OCC1c1ccc(F)c(C(F)(F)F)c1` (racemic) [Compound 18], the “Plant response rating, Foxtail, Giant” value was 30.

These molecules were tested on ducksalad (Heteranthera limosa) (assay: Test B flooded paddy test, ducksalad). Conditions: 500 g ai/ha; applied to paddy water at 2-leaf stage; 13 to 15 d; scale 0 no effect to 100 complete control.
Type: in vivo
Description: (§2) Plant species in the flooded paddy test selected from rice (Oryza sativa), sedge, umbrella (small-flower umbrella sedge, Cyperus difformis), ducksalad (Heteranthera limosa), and barnyardgrass (Echinochloa crus-galli) were grown to the 2-leaf stage for testing. At time of treatment, test pots were flooded to 3 cm above the soil surface, treated by application of test compounds directly to the paddy water, and then maintained at that water depth for the duration of the test. Treated plants and controls were maintained in a greenhouse for 13 to 15 d, after which time all species were compared to controls and visually evaluated. Plant response ratings, summarized in Table B, are based on a scale of 0 to 100 where 0 is no effect and 100 is complete control. A dash (-) response means no test result.
`O=C(Nc1cccc(F)c1C(F)(F)F)C1C(=O)OCC1c1ccc(F)c(C(F)(F)F)c1` (racemic) [Compound 18] was tested, and the “Plant response rating, Flood, Ducksalad” value was 0.

These molecules were tested on barnyardgrass (Echinochloa crus-galli) (assay: Test B flooded paddy test, barnyardgrass). Conditions: 500 g ai/ha; applied to paddy water at 2-leaf stage; 13 to 15 d; scale 0 no effect to 100 complete control.
Type: in vivo
Description: as §2
In the case of `O=C(Nc1cccc(F)c1C(F)(F)F)C1C(=O)OCC1c1ccc(F)c(C(F)(F)F)c1` (racemic) [Compound 18], the “Plant response rating, Flood, Barnyardgrass” value is reported as 0.

Each molecule was assayed on ryegrass, Italian (Italian ryegrass, Lolium multiflorum) (assay: Test A preemergence, Italian ryegrass). Conditions: 125 g ai/ha, visual rating after approx. 10 d, 0 to 100 scale, 0 no effect, 100 complete control.
Type: in vivo
Excerpt: as §1
With `O=C(Nc1cccc(F)c1C(F)(F)F)C1C(=O)OCC1c1ccc(F)c(C(F)(F)F)c1` (racemic) [Compound 18] the “Plant response rating, Ryegrass, Italian” value was 0.

Same assay, conditions: 500 g ai/ha, visual rating after approx. 10 d, 0 to 100 scale, 0 no effect, 100 complete control
For `O=C(Nc1cccc(F)c1C(F)(F)F)C1C(=O)OCC1c1ccc(F)c(C(F)(F)F)c1` (racemic) [Compound 18], the “Plant response rating, Ryegrass, Italian” value was 0.

These molecules were tested on barnyardgrass (Echinochloa crus-galli) (assay: Test A postemergence, barnyardgrass). Conditions: 125 g ai/ha, visual rating after approx. 10 d, 0 to 100 scale, 0 no effect, 100 complete control.
Type: in vivo
Excerpt: as §1
In the case of `O=C(Nc1cccc(F)c1C(F)(F)F)C1C(=O)OCC1c1ccc(F)c(C(F)(F)F)c1` (racemic) [Compound 18], the “Plant response rating, Barnyardgrass” value is reported as 0.

Same assay, conditions: 500 g ai/ha, visual rating after approx. 10 d, 0 to 100 scale, 0 no effect, 100 complete control
For `O=C(Nc1cccc(F)c1C(F)(F)F)C1C(=O)OCC1c1ccc(F)c(C(F)(F)F)c1` (racemic) [Compound 18], the “Plant response rating, Barnyardgrass” value was 0.

The molecules below were run on kochia (Kochia scoparia) (assay: Test A postemergence, kochia). Conditions: 125 g ai/ha, visual rating after approx. 10 d, 0 to 100 scale, 0 no effect, 100 complete control.
Type: in vivo
Excerpt: as §1
For `O=C(Nc1cccc(F)c1C(F)(F)F)C1C(=O)OCC1c1ccc(F)c(C(F)(F)F)c1` (racemic) [Compound 18], the “Plant response rating, Kochia” value was 0.

Same assay, conditions: 500 g ai/ha, visual rating after approx. 10 d, 0 to 100 scale, 0 no effect, 100 complete control
With `O=C(Nc1cccc(F)c1C(F)(F)F)C1C(=O)OCC1c1ccc(F)c(C(F)(F)F)c1` (racemic) [Compound 18] the “Plant response rating, Kochia” value was 0.

These molecules were tested on ryegrass, Italian (Italian ryegrass, Lolium multiflorum) (assay: Test A postemergence, Italian ryegrass). Conditions: 125 g ai/ha, visual rating after approx. 10 d, 0 to 100 scale, 0 no effect, 100 complete control.
Type: in vivo
Excerpt: as §1
In the case of `O=C(Nc1cccc(F)c1C(F)(F)F)C1C(=O)OCC1c1ccc(F)c(C(F)(F)F)c1` (racemic) [Compound 18], the “Plant response rating, Ryegrass, Italian” value is reported as 0.

Same assay, conditions: 500 g ai/ha, visual rating after approx. 10 d, 0 to 100 scale, 0 no effect, 100 complete control
For `O=C(Nc1cccc(F)c1C(F)(F)F)C1C(=O)OCC1c1ccc(F)c(C(F)(F)F)c1` (racemic) [Compound 18], the “Plant response rating, Ryegrass, Italian” value was 0.

The molecules below were run on pigweed (Amaranthus retroflexus) (assay: Test A preemergence, pigweed). Conditions: 125 g ai/ha, visual rating after approx. 10 d, 0 to 100 scale, 0 no effect, 100 complete control.
Type: in vivo
Excerpt: as §1
In the case of `O=C(Nc1cccc(F)c1C(F)(F)F)C1C(=O)OCC1c1ccc(F)c(C(F)(F)F)c1` (racemic) [Compound 18], the “Plant response rating, Pigweed” value is reported as 0.

Same assay, conditions: 500 g ai/ha, visual rating after approx. 10 d, 0 to 100 scale, 0 no effect, 100 complete control
`O=C(Nc1cccc(F)c1C(F)(F)F)C1C(=O)OCC1c1ccc(F)c(C(F)(F)F)c1` (racemic) [Compound 18] was tested, and the “Plant response rating, Pigweed” value was 0.

What follows are molecules tested on galium (catchweed bedstraw, Galium aparine) (assay: Test A postemergence, galium). Conditions: 125 g ai/ha, visual rating after approx. 10 d, 0 to 100 scale, 0 no effect, 100 complete control.
Type: in vivo
Excerpt: as §1
`O=C(Nc1cccc(F)c1C(F)(F)F)C1C(=O)OCC1c1ccc(F)c(C(F)(F)F)c1` (racemic) [Compound 18] was tested, and the “Plant response rating, Galium” value was 0.

Same assay, conditions: 500 g ai/ha, visual rating after approx. 10 d, 0 to 100 scale, 0 no effect, 100 complete control
`O=C(Nc1cccc(F)c1C(F)(F)F)C1C(=O)OCC1c1ccc(F)c(C(F)(F)F)c1` (racemic) [Compound 18] was tested, and the “Plant response rating, Galium” value was 0.
